Where no end group is shown, it is not given here.
What was measured:
Format in all cases: cell-based
[1] = test system: E. coli (NIH-JC2); details: for Antimicrobial activities (MIC in μM) E. coli: NIH-JC2, 24 h
Method: (§1) The two bacterial strains (S. aureus, E. coli) were subcultured from storage media to agar plate media (“Mueller Hinton Agar” available from DIFCO), then inoculated into liquid media (“Mueller Hinton broth II” available from DIFCO) and cultured at 30° C. or 37° C. for 24 hours. Subsequently, the aforementioned medium was added to the culture media to dilute and prepare inocula at bacterial concentrations of 2×10^5 cells/mL.
(§2) Antimicrobial activity tests were conducted as follows.
(§3) The peptide-containing solutions prepared to the respective concentrations were aliquoted into 96-well microplates at 20 μL per well. In test sections against the fungus, 80 μL of the MOPS-buffered RPMI1640 medium was added to each well. In test sections against the bacteria, 80 μL of the liquid medium (Mueller Hinton broth II) was added to each well.
(§4) Subsequently, 100 μL of one of the inocula was added to each well and incubation was started in an incubator at 30° C. or 37° C. After 24 hours, the multiplication (growth) of the microorganisms was analyzed by measurements of turbidity (OD600).

[2] = test system: S. aureus (209P); details: for Antimicrobial activities (MIC in μM) S. aureus: 209P, 24 h
Method: as §1, §2, §3, §4

[3] = test system: C. albicans (NBRC-1594); details: for Antimicrobial activities (MIC in μM) C. albicans: NBRC-1594, 24 h
Method: On the other hand, with respect to the one fungus strain (C. albicans), the surface of a slant culture was washed with a physiological saline containing 0.1% Tween® 80 to prepare a conidial suspension. The suspension was filtered with a Falcon® cell strainer and diluted with a MOPS-buffered RPMI1640 medium to prepare an inoculum at a fungus concentration of 2×10^4 cells/mL.
as §2, §3, §4

[4] = summary of Table 2, all microorganism strains

Sequence	Antimicrobial activities (MIC in μM) E. coli [1] [µM]	Antimicrobial activities (MIC in μM) S. aureus [2] [µM]	Antimicrobial activities (MIC in μM) C. albicans [3] [µM]	Antimicrobial activity in words, E. coli [1, 4]	Antimicrobial activity in words, S. aureus [2, 4]	Antimicrobial activity in words, C. albicans [3, 4]
MAATGTAAAAATGKLLVLLLLGLTAPAAA [Sample 6]	16	8	16	–	–	–
MAATGTAAAAATGRLLLLLLVGLTAPALA [Sample 5]	16	8	16	–	–	–
MGPASPAARGLSRRPGQPPLPLLLPLLLLLLRAQPAIG [Sample 3]	16	4	16	–	–	–
MGPTSPAARGQGRRWRPPLPLLLPLSLLLLRAQLAVG [Sample 4]	16	4	16	–	–	–
MLPGLALLLLAAWTARA [Sample 1]	32	16	32	–	–	–
MLPSLALLLLAAWTVRA [Sample 2]	32	16	32	–	–	–
TLHQQCIRVLKNNID [Sample 7, reference compound]	>256	>256	>256	no antimicrobial activities were observed	no antimicrobial activities were observed	no antimicrobial activities were observed
